Test results published in patent publication US20060167298A1, “Sulfated diglyceride derivatives, salts thereof, and processes for their preparation” (priority 2005, published 2006).
One block for each compound: values may come before it.

Experiments:
[1] = Surface tension of aqueous solution at 25° C.; assay type: physicochemical
[2] = Foam test: solution shaken in a graduated cylinder; assay type: physicochemical
Protocol: Dioctanoyl glyceride (6.88 grams; 0.02 mole), sulfamic acid (2.14 gram; 0.022 mole) and ammonium sulfamate (0.34 gram; 0.00298 mole) were heated with stirring at 120-125° C. for 3 hours. The reaction mixture was a somewhat viscous brown liquid. The reaction mixture was treated with water to make a 10% solution by weight, and centrifuged to recover unreacted diglyceride.

[3] = 0.1% by weight aqueous solution of the reaction mixture
[4] = 20 ml of the 0.1% solution shaken in a 100 ml graduated cylinder for 20 full cycles
[5] = 0.12% aqueous solution of the product in distilled water

surface tension at 25° C. [1, 3]: 25.4 mN/m
foam persistence [2, 4]: one hour or more
foam produced [2, 4]: 45 mL
Compound: CCCCCCCC(=O)OCC(COS(=O)(=O)O)OC(=O)CCCCCCC.N (centres unmarked) [Example 1 (ammonium salt), Sulfated Dioctanoyl Glyceride]

surface tension at 25° C. [1, 3]: 26.3 mN/m
Compound: CCCCCCCC(=O)OCC(COS(=O)(=O)O)OC(=O)CCCCCCC.N (centres unmarked) [Example 1 (sodium salt), Sulfated Dioctanoyl Glyceride]

Compound: CCCCCC(=O)OCC(COS(=O)(=O)O)OC(=O)CCCCC.N (centres unmarked) [Example 2, Ammonium Salt of Sulfated Dihexanoyl Glyceride]
surface tension at 25° C. ([1]; 0.4% by weight aqueous solution of the reaction mixture): 31.9 mN/m

Compound: CCCCCC(=O)OCC(COS(=O)(=O)O)OC(=O)CCCCC.N (centres unmarked) [Example 6 I, Ammonium Salt of Sulfated Dihexanoyl Glyceride]
surface tension at 25° C. ([1]; 0.42% aqueous solution of the product): 35.6 mN/m

surface tension at 25° C. ([1]; 0.44% aqueous solution of the reaction mixture): 36.5 mN/m
Compound: Mixed Morpholinium, Ammonium Salt of Sulfated Dihexanoyl Glyceride [Example 3]

surface tension at 25° C. ([1]; 0.42% (by weight) solution of the reaction mixture, diluted from 10% solution (pH about 9) after centrifugation): 35.0 mN/m
Compound: Mixed Sodium and Ammonium Salt of Sulfated Dihexanoyl Glyceride [Example 6 II]

Compound: Sodium Salt of Sulfated Dioctanoyl Glyceride [Example 5]
surface tension at 25° C. [1, 5]: 26.8 mN/m
foaming (observed) [2, 5]: foam very well

Compound: Sodium Salt of Sulfonated Didecanoyl Glyceride [Example 4]
surface tension at 25° C. ([1]; 0.1 g sample of reaction mixture dissolved in distilled water, neutralized to pH about 8 with NaOH): 25.9 mN/m
